From patent publication US20130005696A1, “BUFADIENOLIDE DERIVATIVES, PREPARING PROCESS THEREOF, COMPOSITION COMPRISING THE SAME AND THE USE THEREOF” (priority 2011, published 2013)

Tests used:
Assay type in all cases: in vivo, Balb/c nude mice
[1] = test system: human-derived lung cancer H460 xenograft; assay: Therapeutic effect against H460 xenograft in nude mice; conditions: QOD × 21 d
Protocol: (§1) This experiment is to investigate the in vivo inhibitory effect of II1E-01.HCl on growth of human-derived hepatic carcinoma HepG2 cell, human-derived breast carcinoma MDA-MB-231 cell, human-derived lung carcinoma H460 cell, human-derived colon carcinoma HCT-116 cell, human-derived […] MV-4-11 cell xenografts in nude mice.
(§2) Formulation of solvent control (5% anhydrous ethanol & 5% aqueous glucose solution): 2.5 mL anhydrous ethanol was added into a 50 mL tube, followed by addition of 47.5 mL 5% glucose solution for injection followed by shaking, and stored at room temperature before use.
(§3) Formulation of the preparations of the compounds to be tested: formulations with concentrations of 0.4 mg/mL and 0.6 mg/mL were prepared respectively. An appropriate amount of II1E-01.HCl was weighted and put into a 50 mL tube, followed by addition of corresponding volume of solvent to get the desired concentration and mixed using a vortex mixer. After the solid was dissolved completely, the solution was subpackaged into 4 mL vials and stored at refrigerated condition (2-8° C.) until use.
(§4) Experimental animals: Balb/c nude mice (male, six weeks old).
NCI-H460 xenograft model was established by tumor implantation. 19 days after the implantation, the tumor size reached about 210 mm^3. The mice bearing the tumor were grouped by randomized block method according to the tumor size into 3 groups, which contain 10 mice in each group and include the group of solvent control, and groups of middle (4 mg/kg) and high (6 mg/kg) dosages of the testing compound II1E-01.HCl. In the solvent control group, 5% glucose solution was administered intravenously at tail once every other day (QOD). The testing compound was administered intravenously at tail once every other day (QOD). The animals were given the drugs for three weeks, during which the growth of tumor and the body weight of the mice were observed.
After continuously administering for 21 days (the 40th day after the implantation), the tumor weight and inhibition rate were calculated, and results are listed in Table 7.

[2] = test system: human-derived breast carcinoma MDA-MB-231 xenograft; assay: Therapeutic effect against MDA-MB-231 xenograft in nude mice; conditions: QOD × 7 d
Protocol: as §1, §2, §3, §4
19 days after MDA-MB-231 cells were implanted, the tumor size reached about 617 mm^3. The mice bearing the tumor were grouped and administered. The groups of II1E-01.HCl were administered once every other day (QOD), and the solvent control group was administered with the solvent control solution. After completion of the experiment, the tumor weight and the inhibition rate were calculated, and the results are summarized in Table 6. The high and middle dosage groups have significant inhibitory activities against the growth of MDA-MB-231 xenograft, and the effect depends on the amount obviously.
The tumor in this experiment had been allowed to grow to reach a relative bigger size before drug administration (the tumor size before drug administration was about 600 mm^3 while generally the tumor size was only 200-300 mm^3 before drug administration), which corresponds to a middle- or advanced-stage cancer.

[3] = test system: human-derived colon carcinoma HCT-116 xenograft; assay: Therapeutic effect against HCT-116 xenograft in nude mice; conditions: QOD × 14 d
Protocol: as §1, §2, §3, §4
HCT116 cells were in vitro cultured to be proliferated. The cells in the log phase of growth were collected, resuspended in RPMI-1640 serum-free medium, and then implanted subcutaneously into the axilla of the right forelimb of nude mice. After 14 days, the tumor size reached about 470 mm^3. The mice bearing the tumor were grouped by randomized block method according to the tumor size into 3 groups, including the group of solvent control and groups of 4 mg/kg and 6 mg/kg dosages of the testing compound II1E-01.HCl. In the solvent control group, glucose injection was administered intravenously at tail once every other day (QOD). The testing compound II1E-01.HCl was administered intravenously (iv) at tail once every other day (QOD). The animals were given the drugs for 14 days, during which, the growth of tumor and the body weight of the mice were observed.
After continuously administering for 14 days (the 28th day after the implantation), the tumor weight and inhibition rate were calculated, and results are listed in Table 8.

[4] = test system: human hepatic carcinoma HepG2 xenograft; assay: Therapeutic effect against HepG2 xenograft in nude mice; conditions: QOD × 14 d
Protocol: as §1, §2, §3, §4
HepG2 cells were in vitro cultured to be proliferated. The cells in the log phase of growth were collected and resuspended in DMEM serum-free medium, and then implanted subcutaneously into the axilla of the right forelimb of nude mice. After 11 days, the tumor size reached about 250 mm^3. The mice bearing the tumor were grouped according to the tumor size into 6 groups, including the group of solvent control, groups of positive controls (Rapamycin 10 mg/kg and Vinorelbine 8 mg/kg), and groups of low (2 mg/kg), middle (4 mg/kg) and high (6 mg/kg) dosages of the testing compound II1E-01.HCl. Each group was administered intravenously at tail. In the solvent control group, the solvent control solution was administered intravenously once every other day (QOD). In the low, middle and high dosage groups of II1E-01.HCl, II1E-01.HCl was administered intravenously once every other day (QOD). In the positive control groups, Rapamycin 10 mg/kg and Vinorelbine 8 mg/kg were administered once a week (QW). The animals were given the drugs for two weeks. In the two week time period, the growth of tumor and the body weight of the mice were observed.
Two weeks after administering (the 25th day after the implantation), the tumor weight and inhibition rate were calculated, and results are listed in Table 5.

[5] = 4 mg/kg iv, listed as II1E-01.HCl, 4 mg/kg
[6] = 6 mg/kg iv, listed as II1E-01.HCl, 6 mg/kg

C[C@]12CC[C@H](OC(=O)NC3CCNCC3)C[C@H]1CC[C@@H]1[C@@H]2CC[C@]2(C)[C@@H](c3ccc(=O)oc3)CC[C@]12O.Cl [II1E-01•HCl]
Tumor Weight(g) Mean ± SE ([1]; 4 mg/kg iv): 0.5125 ± 0.0307 g | Inhibition Rate (%) ([1]; 4 mg/kg iv, 4 mg/kg): 61.94% | Inhibition Rate (%) [1, 5]: 61.94% | Tumor Weight(g) Mean ± SE ([1]; 6 mg/kg iv): 0.3246 ± 0.0692 g | Inhibition Rate (%) ([1]; 6 mg/kg iv, 6 mg/kg): 75.90% | Inhibition Rate (%) [1, 6]: 75.90% | Inhibition Rate (%) ([2]; 2 mg/kg iv): 16.36% | Tumor Weight(g) Mean ± SE ([2]; 2 mg/kg iv): 2.6063 ± 0.2731 g | Inhibition Rate (%) ([2]; 4 mg/kg iv): 33.99% | Tumor Weight(g) Mean ± SE ([2]; 4 mg/kg iv): 2.0569 ± 0.1340 g | Inhibition Rate (%) ([2]; 6 mg/kg iv): 52.23% | Tumor Weight(g) Mean ± SE ([2]; 6 mg/kg iv): 1.4887 ± 0.1763 g | Tumor Weight(g) Mean ± SE ([3]; 4 mg/kg iv): 0.8017 ± 0.0480 g | Inhibition Rate (%) ([3]; 4 mg/kg iv, 4 mg/kg): 36.82% | Inhibition Rate (%) [3, 5]: 36.82% | Tumor Weight(g) Mean ± SE ([3]; 6 mg/kg iv): 0.4147 ± 0.0212 g | Inhibition Rate (%) ([3]; 6 mg/kg iv, 6 mg/kg): 67.33% | Inhibition Rate (%) [3, 6]: 67.33% | Tumor Weight(g) Mean ± SE ([4]; 2 mg/kg iv): 0.3177 ± 0.0410 g | Inhibition Rate (%) ([4]; 2 mg/kg iv, 2 mg/kg): 58.50% | Inhibition Rate (%) ([4]; 2 mg/kg iv, listed as II1E-01.HCl, 2 mg/kg): 58.50% | Tumor Weight(g) Mean ± SE ([4]; 4 mg/kg iv): 0.0938 ± 0.0121 g | Inhibition Rate (%) ([4]; 4 mg/kg iv, 4 mg/kg): 87.75% | Inhibition Rate (%) [4, 5]: 87.75% | Tumor Weight(g) Mean ± SE ([4]; 6 mg/kg iv): 0.0262 ± 0.0054 g | Inhibition Rate (%) ([4]; 6 mg/kg iv, 6 mg/kg): 96.58% | Inhibition Rate (%) [4, 6]: 96.58%
